Source: publication PMC5218480 (PLoS ONE, 2017)

System: MV-4-11 cells
Assay: Gene expression microarray analysis (Affymetrix PrimeView) and GSEA
Type: cell-based, human
Design: RFU PODN (11730768_x_at) / Fold change /veh PODN (11730768_x_at) / RFU LINC00158 (11744669_a_at) / Fold change /veh LINC00158 (11744669_a_at) / RFU DUSP10 (11751237_a_at) / Fold change /veh DUSP10 (11751237_a_at) / RFU ID3 (11757404_x_at) / Fold change /veh ID3 (11757404_x_at) / RFU PLEKHG5 (11737974_s_at) / Fold change /veh PLEKHG5 (11737974_s_at) / RFU LRRC4B (11730491_at) / Fold change /veh LRRC4B (11730491_at) / RFU GIMAP4 (11747438_a_at) / Fold change /veh GIMAP4 (11747438_a_at) / RFU KRT8 (11758183_x_at) / Fold change /veh KRT8 (11758183_x_at) / RFU CNN1 (11734310_a_at) / Fold change /veh CNN1 (11734310_a_at) / RFU VPS37D (11726825_at) / Fold change /veh VPS37D (11726825_at) / RFU C10orf10 (11716522_x_at) / Fold change /veh C10orf10 (11716522_x_at) / RFU KIR2DL2 /// KIR2DL4 /// KIR2DL5A /// KIR2DL5B /// KIR2DS1 /// KIR2DS2 /// KIR2DS3 /// KIR2DS4 /// KIR3DL3 /// KIR3DL3 /// KIR3DS1 (11738374_at) / Fold change /veh KIR2DL2 /// KIR2DL4 /// KIR2DL5A /// KIR2DL5B /// KIR2DS1 /// KIR2DS2 /// KIR2DS3 /// KIR2DS4 /// KIR3DL3 /// KIR3DL3 /// KIR3DS1 (11738374_at) / RFU C1QL1 (11718748_at) / Fold change /veh C1QL1 (11718748_at) / RFU TMPRSS4 (11747572_a_at) / Fold change /veh TMPRSS4 (11747572_a_at) / RFU HAMP (11756126_x_at) / Fold change /veh HAMP (11756126_x_at) / RFU RNFT2 (11725882_a_at) / Fold change /veh RNFT2 (11725882_a_at) / RFU NR4A2 (11747474_a_at) / Fold change /veh NR4A2 (11747474_a_at) / RFU ABCC12 (11746883_a_at) / Fold change /veh ABCC12 (11746883_a_at) / RFU TMEM136 (11760407_x_at) / Fold change /veh TMEM136 (11760407_x_at) / RFU CLDN22 /// WWC2 (11732394_at) / Fold change /veh CLDN22 /// WWC2 (11732394_at) / RFU HLA-DPB1 (11760878_x_at) / Fold change /veh HLA-DPB1 (11760878_x_at) / RFU SPINT1 (11716480_a_at) / Fold change /veh SPINT1 (11716480_a_at) / RFU GAP43 (11754022_s_at) / Fold change /veh GAP43 (11754022_s_at) / RFU A4GNT (11735810_at) / Fold change /veh A4GNT (11735810_at) / RFU PRB3 (11715151_x_at) / Fold change /veh PRB3 (11715151_x_at) / RFU TUBB4B (11761932_at) / Fold change /veh TUBB4B (11761932_at) / RFU CAPN14 (11732068_a_at) / Fold change /veh CAPN14 (11732068_a_at) / RFU TMCC2 (11721928_a_at) / Fold change /veh TMCC2 (11721928_a_at) / RFU IRGQ (11745062_a_at) / Fold change /veh IRGQ (11745062_a_at) / RFU FAM174B (11720279_a_at) / Fold change /veh FAM174B (11720279_a_at) / RFU TMPRSS4 (11748680_a_at) / Fold change /veh TMPRSS4 (11748680_a_at) / RFU FAM212B (11763350_a_at) / Fold change /veh FAM212B (11763350_a_at) / RFU PLEKHG5 (11743358_a_at) / Fold change /veh PLEKHG5 (11743358_a_at) / RFU ZSCAN30 (11745921_a_at) / Fold change /veh ZSCAN30 (11745921_a_at) / RFU CMKLR1 (11741424_a_at) / Fold change /veh CMKLR1 (11741424_a_at) / RFU LOC101060620 /// MAPK8IP1 (11723275_at) / Fold change /veh LOC101060620 /// MAPK8IP1 (11723275_at) / RFU SPTSSB (11747773_x_at) / Fold change /veh SPTSSB (11747773_x_at) / RFU PRSS12 (11739890_at) / Fold change /veh PRSS12 (11739890_at) / RFU BIN1 (11741810_x_at) / Fold change /veh BIN1 (11741810_x_at) / RFU WNT11 (11732464_a_at) / Fold change /veh WNT11 (11732464_a_at) / RFU C10orf10 (11716521_a_at) / Fold change /veh C10orf10 (11716521_a_at) / RFU C5orf56 (11738089_at) / Fold change /veh C5orf56 (11738089_at) / RFU CYB561 (11721691_x_at) / Fold change /veh CYB561 (11721691_x_at) / RFU ANKRD19P (11752326_a_at) / Fold change /veh ANKRD19P (11752326_a_at) / RFU OR2T12 /// OR2T33 /// OR2T8 (11738714_s_at) / Fold change /veh OR2T12 /// OR2T33 /// OR2T8 (11738714_s_at) / RFU VCAN (11748164_a_at) / Fold change /veh VCAN (11748164_a_at) / RFU JSRP1 (11732532_at) / Fold change /veh JSRP1 (11732532_at) / RFU KRTAP10-11 (11738290_x_at) / Fold change /veh KRTAP10-11 (11738290_x_at) / RFU MYO3A (11730013_a_at) / Fold change /veh MYO3A (11730013_a_at) / RFU EBF3 (11725865_a_at) / Fold change /veh EBF3 (11725865_a_at) / RFU CAMK2N1 (11719241_x_at) / Fold change /veh CAMK2N1 (11719241_x_at) / RFU C5orf56 (11738088_a_at) / Fold change /veh C5orf56 (11738088_a_at) / RFU OLFML3 (11715873_a_at) / Fold change /veh OLFML3 (11715873_a_at) / RFU LOC100653217 /// NTM (11731650_a_at) / Fold change /veh LOC100653217 /// NTM (11731650_a_at) / RFU MAPK11 (11762145_a_at) / Fold change /veh MAPK11 (11762145_a_at) / RFU FIZ1 (11724087_x_at) / Fold change /veh FIZ1 (11724087_x_at) / RFU OASL (11726364_x_at) / Fold change /veh OASL (11726364_x_at) / RFU SOX15 (11748057_x_at) / Fold change /veh SOX15 (11748057_x_at) / RFU CD79A (11719716_a_at) / Fold change /veh CD79A (11719716_a_at) / RFU HIST1H1D (11736915_at) / Fold change /veh HIST1H1D (11736915_at) / RFU CASKIN2 (11723855_a_at) / Fold change /veh CASKIN2 (11723855_a_at) / RFU LOC730098 (11760151_x_at) / Fold change /veh LOC730098 (11760151_x_at) / RFU OR4N2 (11742367_at) / Fold change /veh OR4N2 (11742367_at) / RFU PRRT2 (11749266_a_at) / Fold change /veh PRRT2 (11749266_a_at) / RFU SNX32 (11753110_a_at) / Fold change /veh SNX32 (11753110_a_at) / RFU CDHR5 (11726645_a_at) / Fold change /veh CDHR5 (11726645_a_at) / RFU RCAN1 (11760418_a_at) / Fold change /veh RCAN1 (11760418_a_at) / RFU FAM167A (11723789_a_at) / Fold change /veh FAM167A (11723789_a_at) / RFU FAM26E (11764081_at) / Fold change /veh FAM26E (11764081_at) / RFU ISYNA1 (11749810_s_at) / Fold change /veh ISYNA1 (11749810_s_at) / RFU ACY1 (11761880_at) / Fold change /veh ACY1 (11761880_at) / RFU 11764098_at / Fold change /veh 11764098_at / RFU SAMD14 (11745864_x_at) / Fold change /veh SAMD14 (11745864_x_at) / RFU NPB (11741838_a_at) / Fold change /veh NPB (11741838_a_at) / RFU TMPRSS6 (11731388_a_at) / Fold change /veh TMPRSS6 (11731388_a_at) / RFU KRTAP10-2 (11738614_at) / Fold change /veh KRTAP10-2 (11738614_at) / RFU ARHGAP8 /// PRR5-ARHGAP8 (11727945_x_at) / Fold change /veh ARHGAP8 /// PRR5-ARHGAP8 (11727945_x_at) / RFU KRTAP5-7 /// NADSYN1 (11734609_at) / Fold change /veh KRTAP5-7 /// NADSYN1 (11734609_at) / RFU RASL12 (11751679_a_at) / Fold change /veh RASL12 (11751679_a_at) / RFU CDKN2B (11736163_a_at) / Fold change /veh CDKN2B (11736163_a_at) / RFU PRF1 (11729649_at) / Fold change /veh PRF1 (11729649_at) / RFU, ZNF638 /// ZNF638-IT1 / Fold change vs veh, ZNF638 /// ZNF638-IT1 / RFU, PANK3 / Fold change vs veh, PANK3 / RFU, SH3YL1 / Fold change vs veh, SH3YL1 / RFU, ZEB2 / Fold change vs veh, ZEB2 / RFU, NRIP1 / Fold change vs veh, NRIP1 / RFU, PTTG1IP / Fold change vs veh, PTTG1IP / RFU, CAPN2 / Fold change vs veh, CAPN2 / RFU, MED14 / Fold change vs veh, MED14 / RFU, SNORA58 / Fold change vs veh, SNORA58 / RFU, C1orf63 / Fold change vs veh, C1orf63 / RFU, LRRFIP1 / Fold change vs veh, LRRFIP1 / RFU, NDUFAF7 / Fold change vs veh, NDUFAF7 / RFU, SLC12A2 / Fold change vs veh, SLC12A2 / RFU, IBTK / Fold change vs veh, IBTK / RFU, ESF1 / Fold change vs veh, ESF1 / Fold change vs veh, TMEM50B / RFU, TAOK1 / Fold change vs veh, TAOK1 / RFU, ACBD3 / Fold change vs veh, ACBD3 / RFU, TMA16 / Fold change vs veh, TMA16 / RFU, RWDD3 / Fold change vs veh, RWDD3 / RFU, BCAT1 / Fold change vs veh, BCAT1 / RFU, EDEM3 / Fold change vs veh, EDEM3 / RFU, TMEM33 / Fold change vs veh, TMEM33 / RFU, WDR75 / Fold change vs veh, WDR75 / RFU, AHCTF1 / Fold change vs veh, AHCTF1 / RFU, TFRC / Fold change vs veh, TFRC / RFU, ZDHHC17 / Fold change vs veh, ZDHHC17 / RFU, NOM1 / Fold change vs veh, NOM1 / RFU, ARL8B / Fold change vs veh, ARL8B / RFU, ZBTB11 / Fold change vs veh, ZBTB11 / RFU, TAMM41 / Fold change vs veh, TAMM41 / RFU, KIAA1704 /// LOC100996395 / Fold change vs veh, KIAA1704 /// LOC100996395 / RFU, ING1 / Fold change vs veh, ING1 / RFU, TRMT61B / Fold change vs veh, TRMT61B / RFU, FUBP3 / Fold change vs veh, FUBP3 / RFU, TP53 / Fold change vs veh, TP53 / RFU, TNKS2 / Fold change vs veh, TNKS2 / RFU, ZFP14 / Fold change vs veh, ZFP14 / RFU, ACTR2 / Fold change vs veh, ACTR2 / RFU, PPP3R1 / Fold change vs veh, PPP3R1 / RFU, PIK3R1 / Fold change vs veh, PIK3R1 / RFU, HNRNPA1 / Fold change vs veh, HNRNPA1 / RFU, RNF170 / Fold change vs veh, RNF170 / RFU, ZNF28 / Fold change vs veh, ZNF28 / RFU, RNGTT / Fold change vs veh, RNGTT / RFU, OGT / Fold change vs veh, OGT / RFU, BRD1 / Fold change vs veh, BRD1 / RFU, MARS / Fold change vs veh, MARS / RFU, ZNF655 / Fold change vs veh, ZNF655 / RFU, FAHD1 / Fold change vs veh, FAHD1 / RFU, BDP1 / Fold change vs veh, BDP1 / RFU, LRRCC1 / Fold change vs veh, LRRCC1 / RFU, ARID1A / Fold change vs veh, ARID1A / RFU, ZNF146 / Fold change vs veh, ZNF146 / RFU, ZNF330 / Fold change vs veh, ZNF330 / RFU, GPN3 / Fold change vs veh, GPN3 / RFU, C9orf123 / Fold change vs veh, C9orf123 / RFU, N4BP2L2 / Fold change vs veh, N4BP2L2 / RFU, ARFIP1 / Fold change vs veh, ARFIP1 / RFU, FAM179B / Fold change vs veh, FAM179B / RFU, BCL10 / Fold change vs veh, BCL10 / RFU, UHRF1BP1L / Fold change vs veh, UHRF1BP1L / RFU, BET1 / Fold change vs veh, BET1 / RFU, CNOT2 / Fold change vs veh, CNOT2 / RFU, ZNF268 / Fold change vs veh, ZNF268 / Fold change vs veh, ZNF507 / RFU, DGCR2 / Fold change vs veh, DGCR2 / RFU, WDSUB1 / Fold change vs veh, WDSUB1 / Fold change vs veh, HSP90B1 /// MIR3652 / RFU, ADSS / Fold change vs veh, ADSS / RFU, GK / Fold change vs veh, GK / RFU, ZNF148 / Fold change vs veh, ZNF148 / RFU, TAF9 / Fold change vs veh, TAF9 / RFU, SLC1A5 / Fold change vs veh, SLC1A5 / RFU, SLMO2 / Fold change vs veh, SLMO2 / RFU, ABCC4 / Fold change vs veh, ABCC4 / RFU, LOC101060439 /// RAP1B / Fold change vs veh, LOC101060439 /// RAP1B / RFU, RFX7 / Fold change vs veh, RFX7 / RFU, GTPBP10 / Fold change vs veh, GTPBP10 / RFU, CNEP1R1 / Fold change vs veh, CNEP1R1 / RFU, BIVM-ERCC5 /// ERCC5 / Fold change vs veh, BIVM-ERCC5 /// ERCC5 / RFU, ILF3 / Fold change vs veh, ILF3 / RFU 11762660_at / Fold change /veh 11762660_at / RFU VCAN (11757783_s_at) / Fold change /veh VCAN (11757783_s_at) / RFU DDX43 (11728927_at) / Fold change /veh DDX43 (11728927_at) / RFU KRT8 (11758188_x_at) / Fold change /veh KRT8 (11758188_x_at) / RFU NKD1 (11759106_at) / Fold change /veh NKD1 (11759106_at) / RFU SRD5A1 (11742802_a_at) / Fold change /veh SRD5A1 (11742802_a_at) / RFU TPSAB1 /// TPSB2 (11721975_s_at) / Fold change /veh TPSAB1 /// TPSB2 (11721975_s_at) / RFU GSTM3 (11746129_a_at) / Fold change /veh GSTM3 (11746129_a_at) / RFU IL23R (11737362_x_at) / Fold change /veh IL23R (11737362_x_at) / RFU TMEM51 (11727254_a_at) / Fold change /veh TMEM51 (11727254_a_at) / RFU PIWIL2 (11732686_x_at) / Fold change /veh PIWIL2 (11732686_x_at) / RFU ORM1 (11744905_x_at) / Fold change /veh ORM1 (11744905_x_at) / RFU CCDC152 (11743942_at) / Fold change /veh CCDC152 (11743942_at) / RFU ECM1 (11717891_a_at) / Fold change /veh ECM1 (11717891_a_at) / RFU IL23R (11748794_a_at) / Fold change /veh IL23R (11748794_a_at) / RFU TNFAIP8L3 (11732012_x_at) / Fold change /veh TNFAIP8L3 (11732012_x_at) / RFU MBOAT4 (11741988_at) / Fold change /veh MBOAT4 (11741988_at) / RFU 11764193_at / Fold change /veh 11764193_at / RFU TMEM53 (11763286_at) / Fold change /veh TMEM53 (11763286_at) / RFU MAGEB2 (11727129_at) / Fold change /veh MAGEB2 (11727129_at) / RFU TMEM200A (11744735_a_at) / Fold change /veh TMEM200A (11744735_a_at) / RFU CCDC152 (11751479_a_at) / Fold change /veh CCDC152 (11751479_a_at) / RFU FAM211A (11726209_a_at) / Fold change /veh FAM211A (11726209_a_at) / RFU RGS16 (11746705_a_at) / Fold change /veh RGS16 (11746705_a_at) / RFU VCAN (11755009_s_at) / Fold change /veh VCAN (11755009_s_at) / RFU RHOB (11743442_s_at) / Fold change /veh RHOB (11743442_s_at) / RFU RGS16 (11720943_a_at) / Fold change /veh RGS16 (11720943_a_at) / RFU RGS16 (11720944_at) / Fold change /veh RGS16 (11720944_at) / RFU, VPS4B / Fold change vs veh, VPS4B / RFU, CREB1 / Fold change vs veh, CREB1 / RFU, DNAJC13 / Fold change vs veh, DNAJC13 / RFU, GNAQ / Fold change vs veh, GNAQ / RFU, CDK5R1 / Fold change vs veh, CDK5R1 / RFU, ZRANB3 / Fold change vs veh, ZRANB3 / RFU, CUL4A / Fold change vs veh, CUL4A / RFU, CCNY / Fold change vs veh, CCNY / RFU, UFL1 / Fold change vs veh, UFL1 / RFU, COG3 / Fold change vs veh, COG3 / RFU, DIAPH2 / Fold change vs veh, DIAPH2 / RFU, SKA2 / Fold change vs veh, SKA2 / RFU, AFF3 / Fold change vs veh, AFF3 / RFU, LMF1 / Fold change vs veh, LMF1 / RFU, IPO11 / Fold change vs veh, IPO11 / RFU, DFFB / Fold change vs veh, DFFB / RFU, FOXP1 / Fold change vs veh, FOXP1 / RFU, CARD8 / Fold change vs veh, CARD8 / RFU, STRN3 / Fold change vs veh, STRN3 / RFU, ADK / Fold change vs veh, ADK / RFU, RASSF2 / Fold change vs veh, RASSF2 / RFU, WIPF1 / Fold change vs veh, WIPF1 / RFU, LARP1B / Fold change vs veh, LARP1B / RFU, RASA1 / Fold change vs veh, RASA1 / RFU, RB1 / Fold change vs veh, RB1 / RFU, PPFIA1 / Fold change vs veh, PPFIA1 / RFU, MAT2A / Fold change vs veh, MAT2A / RFU, CCT5 / Fold change vs veh, CCT5 / RFU, WDR92 / Fold change vs veh, WDR92 / RFU, CUX1 / Fold change vs veh, CUX1 / RFU, TTC7A / Fold change vs veh, TTC7A / RFU, TMEM135 / Fold change vs veh, TMEM135 / RFU, DEPTOR / Fold change vs veh, DEPTOR / RFU, CPM / Fold change vs veh, CPM / RFU, DNAJB6 / Fold change vs veh, DNAJB6 / RFU, CACNA2D3 / Fold change vs veh, CACNA2D3 / RFU, DTX4 / Fold change vs veh, DTX4 / RFU, TFCP2 / Fold change vs veh, TFCP2 / RFU, GMCL1 /// GMCL1P1 / Fold change vs veh, GMCL1 /// GMCL1P1 / RFU, AEBP2 / Fold change vs veh, AEBP2 / RFU, SNHG1 /// SNORD22 /// SNORD25 /// SNORD26 /// SNORD27 /// SNORD28 /// SNORD29 /// SNORD31 / Fold change vs veh, SNHG1 /// SNORD22 /// SNORD25 /// SNORD26 /// SNORD27 /// SNORD28 /// SNORD29 /// SNORD31 / Fold change (Aza/veh), C12orf56 (ProbeSet 11735607_a_at) / Fold change (ACY-1035/veh), C12orf56 (ProbeSet 11735607_a_at) / Fold change (Aza/veh), FGFR1OP (ProbeSet 11751329_s_at) / Fold change (ACY-1035/veh), FGFR1OP (ProbeSet 11751329_s_at) / Fold change (Aza/veh), VPS36 (ProbeSet 11739960_a_at) / Fold change (ACY-1035/veh), VPS36 (ProbeSet 11739960_a_at) / RFU SYPL1 (11715823_x_at) / Fold change /veh SYPL1 (11715823_x_at) / RFU IGFBP7 (11715501_s_at) / Fold change /veh IGFBP7 (11715501_s_at) / RFU REEP3 (11722064_at) / Fold change /veh REEP3 (11722064_at) / RFU IGLL1 (11728026_x_at) / Fold change /veh IGLL1 (11728026_x_at): dose or concentration left out as unconfirmed
Details: ProbeSet 11731461_x_at; LIST D

## Nc1ccc(-c2cccs2)cc1NC(=O)c1ccc2c(c1)cc(C1CC1)n2CCN1CCOCC1 [ACY-1035]
  RFU, CPM: 131.54 RFU
